What all share (type): in vivo, BALB/c mice
Data set [1] concerns anti-OVA-specific IgG1 subclass antibody. Kind of data set: Adjuvant activity test: anti-OVA-specific IgG1 subclass antibody in serum of OVA-immunized mice (ELISA). The conditions noted are these: after secondary immunization, serum 2 weeks later; OVA 5 μg + compound 0.256 μmol in 5% αCD-added saline (Addavax mixed with saline at 1:1), dorsal-subcutaneous; compared to OVA single administration group. (In general: In an ELISA, binding on a coated surface is turned into a signal by an enzyme label.)

Data set [2] relates to anti-OVA-specific IgG2a subclass antibody. As to the kind of experiment: Adjuvant activity test: anti-OVA-specific IgG2a subclass antibody in serum of OVA-immunized mice (ELISA). The note with it: after secondary immunization, serum 2 weeks later; OVA 5 μg + compound 0.256 μmol in 5% αCD-added saline (Addavax mixed with saline at 1:1), dorsal-subcutaneous; compared to OVA single administration group.

Data set [3] has as its system anti-OVA-specific IgE antibody. Kind of data set: Allergy inducing activity test: anti-OVA-specific IgE antibody in serum of OVA-immunized mice (DS mouse IgE ELISA (OVA) kit). Here is the method:
8-Week-old female BALB/c mice were divided into groups (N=6), and each group was primarily immunized by dorsal-subcutaneous administration of (1) ovalbumin (OVA) (5 μg) dissolved in saline as an antigen (OVA single administration group), (2) OVA 5 μg and Addavax™ (mixed with saline at 1:1) dissolved in saline (Addavax™ administration group) as positive control adjuvant, (3) OVA 5 μg and SZ137 0.256 μmol dissolved or dispersed in 5% α-cyclodextrin (hereinafter to be simply referred to as αCD)-added saline (SZ137 administration group), (4) OVA (5 μg) and SZ138 (0.256 μmol) dissolved or dispersed in 5% αCD-added saline (SZ138 administration group), (5) OVA (5 μg) and SZ142 (0.256 μmol) dissolved or dispersed in 5% αCD-added saline (SZ142 administration group), (6) OVA (5 μg) and SZ144 (0.256 μmol) dissolved or dispersed in 5% αCD-added saline (SZ144 administration group), (7) OVA (5 μg) and SZ145 (0.256 μmol) dissolved or dispersed in 5% αCD-added saline (SZ145 administration group), (8) OVA (5 μg) and SZ146 (0.256 μmol) dissolved or dispersed in 5% αCD-added saline (SZ146 administration group), (9) OVA (5 μg) and SZ147 (0.256 μmol) dissolved or dispersed in 5% αCD-added saline (SZ147 administration group), (10) OVA (5 μg) and SZ148 (0.256 μmol) dissolved or dispersed in 5% αCD-added saline (SZ148 administration group), each per mouse. Two week later, the secondary immunization was carried out by dorsal-subcutaneous administration of solutions or dispersions similar to those of the above-mentioned (1)-(10) again. Two weeks from the secondary immunization, the whole blood was extracted under anesthesia, and the obtained serum sample was measured for anti-OVA-specific IgG1 subclass antibody, anti-OVA-specific IgG2a subclass antibody, and anti-OVA-specific IgE antibody.
The measurement method of the anti-OVA-specific IgE antibody in Experimental Example 1 and the following Experimental Examples 2-5, 8-10 is as follows.
DS mouse IgE ELISA (OVA) kit manufactured by DS Pharma Biomedical Co., Ltd. was used. The protocol is briefly shown below.
The serum sample and a standard reagent for drawing an analytical curve are diluted with a buffer and, after stirring, left standing at room temperature for 10 min. The sample and the standard solution are added to a plate bound with an IgE capture antibody in advance and, after stirring, the mixture is left standing at room temperature for 60 min. The mixture is washed three times with wash, HRP-labeled OVA is added, and the mixture is left standing at room temperature for 30 min. The mixture is washed three times with wash, a substrate solution is added, and the mixture is left standing in dark at room temperature for 30 min. A reaction quenching liquid is added, the mixture is stirred, and the absorbance (OD Value=450 nm) is immediately measured.
The standard used is one attached to the kit, the standard curve is drawn from the measured OD Value, and the concentration is calculated. […]

Data set [4] has as its system anti-OVA-specific IgG1 subclass antibody. Kind of data set: Adjuvant activity test: anti-OVA-specific IgG1 subclass antibody in serum of OVA-immunized mice (ELISA). The conditions noted are these: after primary immunization, serum 2 weeks later; OVA 5 μg + compound 0.256 μmol in 5% αCD-added saline (Addavax mixed with saline at 1:1), dorsal-subcutaneous; compared to OVA single administration group.

Data set [5] relates to anti-OVA-specific IgG2a subclass antibody. As to the kind of experiment: Adjuvant activity test: anti-OVA-specific IgG2a subclass antibody in serum of OVA-immunized mice (ELISA). The conditions noted are these: after primary immunization, serum 2 weeks later; OVA 5 μg + compound 0.256 μmol in 5% αCD-added saline (Addavax mixed with saline at 1:1), dorsal-subcutaneous; compared to OVA single administration group.

Where a name gives a salt, the structure may show the parent alone.

For the compound `CCCCCCCCCCCCCCCCCCCCCC(=O)N[C@@H](CCCNC(=N)N)C(=O)NCCCCCCCCCCCC.Cl` [SZ138, N-[(1S)-1-(dodecylcarbamoyl)-4-guanidino-butyl]docosanamide hydrochloride], the “anti-OVA-specific IgG1 subclass antibody production” value in data set [1] was “showed a tendency to increase”. Also, the “anti-OVA-specific IgG2a subclass antibody production” value in data set [2] was “showed a tendency to increase”. For the same compound, the “anti-OVA-specific IgE antibody production” value in data set [3] (after secondary immunization, OVA 5 μg + compound 0.256 μmol in 5% αCD-added saline (Addavax mixed with saline at 1:1), dorsal-subcutaneous, compared to OVA single administration group) was “an increase in the anti-OVA-specific IgE antibody production was not observed”. Also, in data set [3] (conclusion from IgE after secondary immunization, compound in 5% αCD-added saline), the “allergy inducing activity as compared to Addavax” value is reported as “may have a lower allergy inducing activity”.

As for `CCCCCCCCCCCCCCCC(=O)N[C@@H](CC(C)C)C(=O)NCCCCCCCC` [SZ199, N-[(1S)-3-methyl-1-(octylcarbamoyl)butyl]hexadecanamide], the “anti-OVA-specific IgG1 subclass antibody production” value in data set [1] and in data set [4] was “significant enhancement” in each case. Further, the “anti-OVA-specific IgG2a subclass antibody production” value is listed as “tended to increase” in data set [2] and “significant enhancement” in data set [5].

With `CCCCCCCCCCCCCCCCNC(=O)N[C@@H](CC(C)C)C(=O)NCCCCCCCC` [SZ201, (2S)-2-(hexadecylcarbamoylamino)-4-methyl-N-octyl-pentanamide], the “anti-OVA-specific IgG1 subclass antibody production” value in data set [1] and in data set [4] was “tended to increase” throughout. The “anti-OVA-specific IgG2a subclass antibody production” value in data set [2] and in data set [5] was “tended to increase” throughout.

As for `CCCCCCCCCCCCCCCCOC(=O)N[C@@H](CC(C)C)C(=O)NCCCCCCCC` [SZ203, hexadecyl N-[(1S)-3-methyl-1-(octylcarbamoyl)butyl]carbamate], the “anti-OVA-specific IgG1 subclass antibody production” value in data set [1] and in data set [4] was “tended to increase” in each case. For the same compound, the figures for the “anti-OVA-specific IgG2a subclass antibody production” value in data set [2] and in data set [5] were “tended to increase” and “Significant enhancement”, respectively.

Take `CCCCCCCCCCCCCCCCCC(=O)NCC(C)(C)C(=O)NCCCCCCCCCCCC` [SZ204, N-[3-(dodecylamino)-2,2-dimethyl-3-oxo-propyl]octadecanamide]: the “anti-OVA-specific IgG1 subclass antibody production” value in data set [1] was “significant enhancement”; in data set [4], “tended to increase”. For the same compound, the “anti-OVA-specific IgG2a subclass antibody production” value in data set [2] and in data set [5] was “tended to increase” in each case.

For the compound `CCCCCCCCCCCCCCCCCC(=O)N[C@@H](CCCCNC(=N)N)C(=O)NCCCCCCCCCCCC.Cl` [SZ205, N-[(1S)-1-(dodecylcarbamoyl)-5-guanidino-pentyl]octadecanamide hydrochloride], the “anti-OVA-specific IgG1 subclass antibody production” value in data set [1] and in data set [4] was “significant enhancement” each time. For the same compound, the “anti-OVA-specific IgG2a subclass antibody production” value in data set [2] and in data set [5] was “significant enhancement” each time.

As to `CCCCCCCCCCCCNC(=O)[C@H](CCCNC(=N)N)N(CCCCCCC)CCCCCCC` [SZ207, (2S)-2-(diheptylamino)-N-dodecyl-5-guanidino-pentanamide dihydrochloride], the figures for the “anti-OVA-specific IgG1 subclass antibody production” value in data set [1] and in data set [4] were “significant enhancement” and “tended to increase”, respectively. Besides, the “anti-OVA-specific IgG2a subclass antibody production” value is on record as “significant enhancement” in data set [2] and “tended to increase” in data set [5].

For `CCCCCCCCCCCCCCCCCCCCCC(=O)NCCc1ccncc1.Cl` [SZ209, N-[2-(4-pyridyl)ethyl]docosanamide hydrochloride], the “anti-OVA-specific IgG1 subclass antibody production” value in data set [1] and in data set [4] was “tended to increase” throughout. Besides, the “anti-OVA-specific IgG2a subclass antibody production” value in data set [2] and in data set [5] was “tended to increase” throughout.

Turning to `CCCCCCCCCCCCCCCCNC(=O)N[C@@H](CCCNC(=N)N)C(=O)NCCCCCCCC.Cl` [SZ210, (2S)-5-guanidino-2-(hexadecylcarbamoylamino)-N-octyl-pentanamide hydrochloride], the “anti-OVA-specific IgG1 subclass antibody production” value in data set [1] and in data set [4] was “significant enhancement” throughout. Also, the “anti-OVA-specific IgG2a subclass antibody production” value in data set [2] and in data set [5] was “significant enhancement” each time.

`CCCCCCCCCCCCCCCCCCNC(=O)N[C@@H](CCCNC(=N)N)C(=O)NCCCCCCCCCCCC.Cl` [SZ211, (2S)—N-dodecyl-5-guanidino-2-(octadecylcarbamoylamino)pentanamide hydrochloride]: the “anti-OVA-specific IgG1 subclass antibody production” value in data set [1] and in data set [4] was “significant enhancement” throughout. Also, the “anti-OVA-specific IgG2a subclass antibody production” value in data set [2] and in data set [5] was “significant enhancement” throughout.

Regarding `CCCCCCCCCCCCNC(=O)N[C@@H](CCCNC(=N)N)C(=O)NCCCCCCCCCCCC.Cl` [SZ212, (2S)—N-dodecyl-2-(dodecylcarbamoylamino)-5-guanidino-pentanamide hydrochloride], the “anti-OVA-specific IgG1 subclass antibody production” value in data set [1] and in data set [4] was “significant enhancement” each time. Besides, the “anti-OVA-specific IgG2a subclass antibody production” value in data set [2] and in data set [5] was “significant enhancement” each time.

`CCCCCCCCCCCCCCCCNC(=O)N[C@@H](CCCCN)C(=O)NCCCCCCCC.Cl` [SZ213, (2S)-6-amino-2-(hexadecylcarbamoylamino)-N-octyl-hexanamide hydrochloride]: the “anti-OVA-specific IgG1 subclass antibody production” value is on record as “significant enhancement” in data set [1] and “a tendency toward increase” in data set [4]. In addition, the “anti-OVA-specific IgG2a subclass antibody production” value in data set [2] and in data set [5] was “significant enhancement” in each case.

Turning to `CCCCCCCCCCCCCCCCNC(=O)N[C@@H](CCCCN)C(=O)NCCCCCCCCCCCC.Cl` [SZ214, (2S)-6-amino-N-dodecyl-2-(hexadecylcarbamoylamino)hexanamide hydrochloride], the “anti-OVA-specific IgG1 subclass antibody production” value in data set [1] and in data set [4] was “significant enhancement” in each case. Besides, the “anti-OVA-specific IgG2a subclass antibody production” value in data set [2] and in data set [5] was “significant enhancement” each time.

As to `CCCCCCCCCCCCCCCCOC(=O)N[C@@H](CCCNC(=N)N)C(=O)NCCCCCCCC.Cl` [SZ215, hexadecyl N-[(1S)-4-guanidino-1-(octylcarbamoyl)butyl]carbamate hydrochloride], the “anti-OVA-specific IgG1 subclass antibody production” value in data set [1] and in data set [4] was “a tendency toward increase” each time. The “anti-OVA-specific IgG2a subclass antibody production” value in data set [2] and in data set [5] was “significant enhancement” in each case.

Source of the values: patent publication US20180311342A1, “IMMUNOSTIMULATING AGENT” (AJINOMOTO CO., INC., priority 2017, published 2018).
